The values that follow come from patent US8414660B2, “Haloferax volcanii laccase and variants and fragments thereof” (University of Florida Research Foundation, Inc., priority 2009, dated 2013).

Values joined by “and” are separate entries in the source; they are usually repeats but may differ in a detail not shown here. Equal values may be shown once. Read-outs that look alike come from different tables or passages of the source.

As usually defined, the Km is the concentration of substrate that gives half-maximal velocity.

For data set [1], the target named is T1, LccA isolated from Hfx. volcanii SB01 (Haloferax volcanii, UniProt D4GPK6).
T1 construct: made in house; host or cells: Haloferax volcanii SB01 (H26 carrying plasmid pJAM822), secreted into culture broth
T1 sequence (D4GPK6 32-579): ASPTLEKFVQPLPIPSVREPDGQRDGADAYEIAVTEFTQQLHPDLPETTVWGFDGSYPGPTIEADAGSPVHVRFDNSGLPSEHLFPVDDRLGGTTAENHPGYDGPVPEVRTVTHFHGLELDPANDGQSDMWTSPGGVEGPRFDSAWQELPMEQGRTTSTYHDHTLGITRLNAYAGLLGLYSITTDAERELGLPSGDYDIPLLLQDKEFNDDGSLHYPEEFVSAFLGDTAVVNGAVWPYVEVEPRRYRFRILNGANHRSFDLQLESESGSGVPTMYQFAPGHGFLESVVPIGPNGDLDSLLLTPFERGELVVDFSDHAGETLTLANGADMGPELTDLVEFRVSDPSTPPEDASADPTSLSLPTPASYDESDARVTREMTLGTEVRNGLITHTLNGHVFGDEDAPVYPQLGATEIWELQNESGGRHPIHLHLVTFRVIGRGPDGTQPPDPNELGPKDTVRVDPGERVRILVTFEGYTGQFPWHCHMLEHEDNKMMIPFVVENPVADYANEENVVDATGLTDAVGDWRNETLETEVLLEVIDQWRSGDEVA
Description: biochemical. Particulars: for Inhibition of observed LccA activity: 0.1 to 1 mM; for inhibition at 10000 µM: read-out: Inhibition / reduction in LccA activity.

For data set [2] the following is noted: literature; cited from earlier work.
For data set [3] the following is noted: comparator laccase-like enzymes, literature, cited from earlier work.
For data set [4] the following is noted: comparator laccase-like enzymes, literature, cited from earlier work. The source holds these as a separate data set.
Data set [5] is described as follows: Laccase activity assay, oxidation of SGZ (syringaldazine).
Description: LccA (51 μg·ml^−1) activity was assayed at different temperatures (22° to 70° C.) in T buffer with 185 mM NaCl using SGZ (1 mM) as the substrate. […] LccA activity was assayed with SGZ (●) from pH 6 to 11 and with ABTS (◯) from pH 3 to 8 at 45° C. using following buffers: 100 mM sodium acetate for pH 3 to 6, 25 mM Tris-HCl for pH 7 to 10, and 25 mM glycine-NaOH for pH 11. Activity is expressed as percent relative to oxidation of ABTS at pH 6. […] Purified enzyme (50.6 μg·ml^−1) was pre-incubated in T buffer supplemented with 185 mM NaCl at temperatures from 37° to 70° C. for up to 60 h, as indicated. […] Activity is presented as percent relative to incubation on ice (37° C. (●), 45° C. (▪), 50° C. (▴), 55° C. (♦), 60° C. (◯), 65° C. (□) and 70° C. (Δ)); FIG. 6E-Salt tolerance of LccA protein. Purified enzyme (16.5 μg·ml^−1) was pre-incubated for 30 min in T buffer at pH 8.4 supplemented with different concentrations of NaCl (0 to 1.4 M) as indicated. Samples were diluted to a final concentration 4.12 μg·ml^−1 protein and 185 mM NaCl in T buffer and assayed for SGZ oxidizing activity under standard conditions. Residual activity was calculated as percent relative to incubation at 185 mM NaCl. […] Enzyme (7.5 μg·ml^−1) was incubated in T buffer with 185 mM NaCl in the presence and absence of 25% (v/v) solvent (DMSO, DMF, ethanol and methanol) at room temperature for 90 min (white bar), 3 h (grey bar) and 24 h (black bar). […] Activity is calculated as percent relative to incubation without solvent.
Enzyme activity was determined by change in absorbance, in triplicate, by UV/Visible-spectroscopy using a BioTek Synergy HT multi-detection microplate reader with a 96-well plate. Oxidation of substrate was monitored by absorbance increase (ABTS at 420 nm with ε=36,000 M^−1 cm^−1; SGZ at 526 nm with ε=65,000 M^−1 cm^−1; DMP at 468 nm with ε=49,000 M^−1 cm^−1; guaiacol at 436 nm with ε=26,600 M^−1 cm^−1; ferrous ammonium sulfate at 315 nm with ε=2,200 M^−1 cm^−1) or decrease (bilirubin at 440 nm with ε=56,300 M^−1 cm^−1). Standard assay conditions were 185 mM NaCl at 45° C. with the following buffers and substrate concentrations: 100 mM sodium acetate buffer at pH 6.0 for ABTS (at 5 mM), DMP (at 2 mM) and guaiacol (at 5 mM); 25 mM Tris-HCl buffer at pH 8.4 for SGZ (at 1 mM); and 200 mM Tris-HCl buffer at pH 8.4 for bilirubin (0.45 mM). Copper sulfate (1 mM) was included for assay of DMP oxidation. Oxidation of ferrous ammonium sulphate (1 mM) was monitored at 315 nm (ε=2,200 M^−1 cm^−1) with and without salt (185 mM NaCl) in 100 mM MES (morpholineethanesulfonic acid) buffer at pH 5 as well as 25 mM Tris-HCl buffer at pH 7.0 and 8.4. One unit of enzyme activity is defined as the amount of enzyme that oxidizes 1 μmol of substrate per min at standard conditions. […] Kinetic parameters (Km, Vmax, and kcat) were determined using the Michaelis-Menten equation. […] All assays and protein purifications were performed at least in triplicate.
To further evaluate the catalytic properties of LccA, the temperature, pH and salt optima of the purified enzyme were determined using SGZ and/or ABTS as substrates.
Where [6] appears, read: compound 0.1 mM, 10 min at 45° C.
Where [7] appears, read: compound 1 mM, 10 min at 45° C.
Setting [8] is: compound 10 mM, 10 min at 45° C.

Take `O[C@@H](CS)[C@@H](O)CS` (racemic) [DL-Dithiothretol]: the “Inhibition of observed LccA activity” value in data set [1] is listed as “strong inhibitors”. Moreover, the “Relative Activity of LccA” value in data set [1] (compound 0.01 mM, 10 min at 45° C.) is recorded as 90.5 ± 5.5%; in data set [1] (setting [6]), “u.d”; in data set [1] (setting [7]), “u.d”.

Turning to `c1cnc2c(c1)ccc1cccnc12` [1,10-Phenanthroline], the inhibition at 10000 µM in data set [1] (10 mM) stood at 90%. In addition, the “Relative Activity of LccA” value is recorded as 85.3 ± 3.4% in data set [1] (setting [7]) and 10.9 ± 3.9% in data set [1] (setting [8]).

For `c1ccc(-c2ccccn2)nc1` [2,2-Dipyridyl], in data set [1] (10 mM), the “Inhibition / reduction in LccA activity” value amounted to 25%. Further, the results for the “Relative Activity of LccA” value in data set [1] (setting [7]) and in data set [1] (setting [8]) were 86.6 ± 3.3% and 75.2 ± 2.3%, respectively.

Turning to `O=C(O)CN(CCN(CC(=O)O)CC(=O)O)CC(=O)O` [EDTA], in data set [1], the “Inhibitory activity toward LccA” value is “no inhibitory activity”; the “Relative Activity of LccA” value is 100.6 ± 1.8% and 106.3 ± 5.8% and 123.6 ± 3.2% and 123.7 ± 3.0%.

With `N[C@@H](CS)C(=O)O` [L-Cysteine], the “Inhibition of observed LccA activity” value in data set [1] was “strong inhibitors”. Moreover, the “Relative Activity of LccA” value was 83.0 ± 3.7% in data set [1] (setting [6]) and “u.d.^c” in data set [1] (setting [7]).

Regarding `NC(N)=S` [Thiourea], the inhibition at 10000 µM in data set [1] (10 mM) came out at 90%. Besides, the “Relative Activity of LccA” value in data set [1] (setting [7]) worked out at 96.5 ± 3.9%; in data set [1] (setting [8]), 9.5 ± 1.3%.

For the molecule McoA [reference compound], the Temperature optimum in data set [2] was 70 °C.

B1: CotA, Bacillus subtilis: Bacillus subtilis spore coat protein A with laccase activity (Martins et al., 2002) (protein, UniProt P07788 1-513, looked up)
Laccase: MTLEKFVDALPIPDTLKPVQQSKEKTYYEVTMEECTHQLHRDLPPTRLWGYNGLFPGPTIEVKRNENVYVKWMNNLPSTHFLPIDHTIHHSDSQHEEPEVKTVVHLHGGVTPDDSDGYPEAWFSKDFEQTGPYFKREVYHYPNQQRGAILWYHDHAMALTRLNVYAGLVGAYIIHDPKEKRLKLPSDEYDVPLLITDRTINEDGSLFYPSAPENPSPSLPNPSIVPAFCGETILVNGKVWPYLEVEPRKYRFRVINASNTRTYNLSLDNGGDFIQIGSDGGLLPRSVKLNSFSLAPAERYDIIIDFTAYEGESIILANSAGCGGDVNPETDANIMQFRVTKPLAQKDESRKPKYLASYPSVQHERIQNIRTLKLAGTQDEYGRPVLLLNNKRWHDPVTETPKVGTTEIWSIINPTRGTHPIHLHLVSFRVLDRRPFDIARYQESGELSYTGPAVPPPPSEKGWKDTIQAHAGEVLRIAATFGPYSGRYVWHCHILEHEDYDMMRPMDITDPHK
On to B1, for which the “kcat, ABTS” value in data set [3] is 16.8 s⁻¹. Besides, the Km in data set [3] (read-out: Km, ABTS) is 106 µM; in data set [4] (read-out: Km, SGZ), 26 µM. For the same molecule, the Temperature optimum in data set [2] was 75 °C. For the same molecule, in data set [4], the “kcat, SGZ” value is 3.7 s⁻¹.

B2: LccA-StrepII: LccA with a C-terminal StrepII tag (-WSHPQFEK), purified from Hfx. volcanii SB01 (protein, UniProt D4GPK6 32-579, looked up)
Laccase: ASPTLEKFVQPLPIPSVREPDGQRDGADAYEIAVTEFTQQLHPDLPETTVWGFDGSYPGPTIEADAGSPVHVRFDNSGLPSEHLFPVDDRLGGTTAENHPGYDGPVPEVRTVTHFHGLELDPANDGQSDMWTSPGGVEGPRFDSAWQELPMEQGRTTSTYHDHTLGITRLNAYAGLLGLYSITTDAERELGLPSGDYDIPLLLQDKEFNDDGSLHYPEEFVSAFLGDTAVVNGAVWPYVEVEPRRYRFRILNGANHRSFDLQLESESGSGVPTMYQFAPGHGFLESVVPIGPNGDLDSLLLTPFERGELVVDFSDHAGETLTLANGADMGPELTDLVEFRVSDPSTPPEDASADPTSLSLPTPASYDESDARVTREMTLGTEVRNGLITHTLNGHVFGDEDAPVYPQLGATEIWELQNESGGRHPIHLHLVTFRVIGRGPDGTQPPDPNELGPKDTVRVDPGERVRILVTFEGYTGQFPWHCHMLEHEDNKMMIPFVVENPVADYANEENVVDATGLTDAVGDWRNETLETEVLLEVIDQWRSGDEVA
modifications: C-terminal StrepII tag
Take B2: the “Specific activity lower than US02 purified LccA” value in data set [5] (SGZ oxidation) is given as “over 20 fold”. Further, the “Specific activity, SGZ oxidation” value in data set [5] (purified from culture broth of Hfx. volcanii SB01 (C-terminal StrepII tag), final MonoQ 10/10 pH 8.4) came to 1.3 U·mg^−1.
